Numbers after ± are expanded uncertainties.
Legend:
[1] = xn = mol fraction of the nth substance listed; details: 101 kPa, Liquid, Frequency=0.001 MHz, Alternating current cell with electrodes
[2] = 101.33 kPa, Liquid, Alternating current cell with electrodes

[Cl-].[Cs+] [cesium chloride] + [Cl-].[Li+]
electrical conductivity [S/m], [1]
Details | x1 = 0.42 | x1 = 0.425
593.5 K | 33.3 ± 0.7 | –
598.5 K | 35.5 ± 1.2 | –
603 K | – | 33.3 ± 0.7
603.5 K | 37.9 ± 1.2 | –
608 K | – | 35.5 ± 1.1
610.5 K | 41.1 ± 1.2 | –
613 K | – | 37.5 ± 1.1
613.5 K | 42.4 ± 1.3 | –
618 K | – | 39.8 ± 1.2
623 K | – | 42 ± 1.2
623.5 K | 47.1 ± 1.3 | –
628 K | – | 44.2 ± 1.3
628.5 K | 49.5 ± 1.4 | –
629 K | 52.4 ± 1.5 | –
633 K | – | 46.5 ± 1.3
633.5 K | 52 ± 1.5 | –
638 K | 57.1 ± 1.5 | 48.8 ± 1.4
643 K | – | 51.2 ± 1.4
643.5 K | 57 ± 1.4 | –
648 K | – | 53.4 ± 1.4
650 K | 62.1 ± 1.6 | –
650.5 K | 60.5 ± 1.6 | –
653 K | – | 55.9 ± 1.5
653.5 K | 62 ± 2.1 | –
658 K | 66.5 ± 1.7 | 58.2 ± 1.5
663 K | – | 60.6 ± 1.5
663.5 K | 67.1 ± 1.6 | –
668 K | – | 63 ± 1.6
670 K | 72.1 ± 1.8 | –
670.5 K | 70.6 ± 1.7 | –
673 K | – | 65.4 ± 1.6
673.5 K | 72.1 ± 2.2 | –
678 K | 76.6 ± 1.8 | 67.8 ± 1.7
683 K | – | 70.1 ± 1.7
683.5 K | 77.2 ± 1.8 | –
688 K | – | 72.5 ± 1.7
690 K | 82.2 ± 2 | –
690.5 K | 80.6 ± 1.9 | –
693 K | – | 74.9 ± 1.8
693.5 K | 82.2 ± 2.4 | –
698 K | 86.9 ± 2 | 77.1 ± 1.8
703 K | – | 79.6 ± 1.8
703.5 K | 87 ± 1.9 | –
708 K | – | 81.7 ± 1.9
710 K | 91.8 ± 2.3 | –
710.5 K | 90.2 ± 2.3 | –
713 K | – | 84 ± 1.9
718 K | 97.1 ± 1.9 | 86.3 ± 1.9
723 K | – | 88.4 ± 1.8

O=[N+]([O-])[O-].[K+] [potassium nitrate]
[2]
Details | electrical conductivity [S/m]
618.5 K | 64.7 ± 1.3
623.5 K | 66.2 ± 1.3
624.6 K | 66.5 ± 1.3
626.5 K | 67.1 ± 1.3
627.9 K | 67.5 ± 1.4
628.4 K | 67.7 ± 1.4
628.5 K | 67.7 ± 1.4
630.5 K | 68.3 ± 1.4
631.5 K | 68.5 ± 1.4
633.5 K | 69.1 ± 1.4
633.6 K | 69.1 ± 1.4
633.8 K | 69.2 ± 1.4
636.7 K | 70.1 ± 1.4
638.5 K | 70.6 ± 1.4
648.5 K | 73.4 ± 1.5
649.6 K | 73.7 ± 1.5
653.5 K | 74.9 ± 1.5
658.5 K | 76.3 ± 1.5
659.6 K | 76.6 ± 1.5
663.5 K | 77.7 ± 1.6
665 K | 78.2 ± 1.6

O=[N+]([O-])[O-].[Na+] [sodium nitrate]
[2]
Details | electrical conductivity [S/m]
583 K | 98.7 ± 2
593 K | 103 ± 2.1
603 K | 108 ± 2.2
613 K | 112 ± 2.2
623 K | 116 ± 2.3
633 K | 121 ± 2.4
643 K | 125 ± 2.5
